Work on `CCCCCCCCCCCC1=C(O)C(=O)C=C(O)C1=O` yielded a melting point of 142 °C.
With `CCCCCCCCOC(=O)c1ccccc1C(=O)OCCCCCCCC(C)C` the melting point was 98 °C.
`O=C(O)C=Cc1ccc(-c2ccc(F)cc2F)o1` gave a melting point of 218 to 220 °C.
Compound `CC12CCC(C(C(=O)c3cccc4ccccc34)C1=O)C2(C)C` (stereo unspecified) has a melting point of 104 °C.
`O=C(Cl)c1ccc(-c2ccccc2)s1` gave a melting point of 76 to 80 °C.
Work on `Nc1nc(-c2ccc(Cl)cc2)cs1` yielded a melting point of 169 °C.
In the case of `CC(=O)C=CC1=C(C)CCCC1(C)C`, the melting point is reported as -49 °C.
`CC12CCCCC1CCC1C2CCC2(C)C(OCc3ccccc3)CCC12` (stereo unspecified) showed a melting point of 160 °C.
`CSC(SC)=C(C#N)C(=O)c1cccc(Cl)c1` gave a melting point of 88 to 91 °C.
`Cc1ccc(-n2ncc(Cl)c(Cl)c2=O)cc1` gave a melting point of 144 to 146 °C.
With `C=C1C(C)CCC2(C)C3=C(C(=O)C4(CC4C)C(OC(C)=O)C3=O)C(OC(C)=O)C(OC(C)=O)C12` (stereo unspecified) the melting point was 173 °C.
`CCNc1cccc(O)c1` showed a melting point of 62 °C.
For `CC(C)C1=C(O)C(=O)C2=C(C=CC3C(C)(C)CCCC23C)C1=O` (stereo unspecified), the melting point was 167 °C.
With `COc1ccc2nonc2c1` the melting point was 99 to 102 °C.
Compound `COC1(OC)CC[C@]2(C)[C@H]3CC[C@]4(C)C(=O)CC[C@@]4(O)[C@@H]3CC[C@@]2(C)C1` has a melting point of 175 to 176 °C.
Compound `O=CN(C=O)C(N(C=O)C=O)N(C=O)C=O` has a melting point of 145 °C.
Work on `Cc1ccc(P(=S)(c2ccc(C)cc2)c2ccc(C)cc2)cc1` yielded a melting point of 185 to 186 °C.
Work on `C=Cc1c(C)cc(C)cc1C` yielded a melting point of -37 °C.
Compound `O=C(c1cccc([N+](=O)[O-])c1)c1nn(-c2ccccc2)/c(=N\Nc2ccccc2)s1` has a melting point of 184 °C.
In the case of `CCOC(=O)C(C#N)=C(N)c1cc2cc(Br)ccc2oc1=O`, the melting point is reported as 270 to 272 °C.
Compound `O=C(O)C(=CN(O)c1ccccc1)c1ccccc1` has a melting point of 75 °C.
`COc1ccccc1NC(=O)c1cncc(Cl)n1` showed a melting point of 72 °C.
With `CSc1ccc(I)cc1` the melting point was 40 to 42 °C.
Work on `O=S(=O)(O)CCCNC(CO)(CO)CO` yielded a melting point of 240 °C.
`Cc1ccc(/C=C(\C(N)=O)c2nc3ccccc3s2)cc1` showed a melting point of 148 °C.
For `COC(=O)c1cccc(C#N)c1`, the melting point was 65 °C.
Compound `CCOC(=O)C(C#N)=Cc1ccc(-c2ccccc2Br)o1` has a melting point of 123 to 124 °C.
`c1cnc2c(SSc3cccc4cccnc34)cccc2c1` showed a melting point of 205 to 206 °C.
`Cc1nnsc1-c1nnc(S)n1C1CC1` showed a melting point of 212 to 213 °C.
With `CC(=O)C(C#N)(CC(=O)c1ccccc1)c1ccccc1` (stereo unspecified) the melting point was 94 °C.
Work on `CCCCCC(C)(C)C` yielded a melting point of -113 °C.
`CCC(C)(c1ccc(O)cc1)c1ccc(O)cc1` gave a melting point of 120 °C.
With `Cc1cc(Cl)c(Cl)cc1Cl` the melting point was 82.4 °C.
Compound `NN=C1c2ccccc2C(=O)C1C(=O)C(c1ccccc1)c1ccccc1` (stereo unspecified) has a melting point of 241 to 243 °C.
With `CSc1nc2cc(NCc3ccc(Cl)cc3)ccc2[nH]1` the melting point was 248 °C.
In the case of `CCC(CC)C(=O)O`, the melting point is reported as -14 °C.
`O=NN1CCc2ccccc21` showed a melting point of 83 °C.
`Cc1c(C)c(N)c(C)c(C)c1N` showed a melting point of 150 to 153 °C.
Work on `OC1C2CCC1C1C=CC2O1` (stereo unspecified) yielded a melting point of 121 to 123 °C.
`Brc1ccc(OC2CCOCC2)nc1` showed a melting point of 96 to 98 °C.
Work on `Cc1cc(C)c2cnn(-c3ccccc3)c2n1` yielded a melting point of 66 °C.
Work on `COc1cccc(C(=O)NN(C(=O)c2cc(C)cc(C)c2)C(C)(C)C)c1C` yielded a melting point of 204 °C.
`O=C(C1=NOC2C(=O)N(c3ccc(Cl)cc3)C(=O)C12)c1ccccc1` (stereo unspecified) gave a melting point of 137 °C.
In the case of `CCC(=O)C(=O)CC`, the melting point is reported as -10 °C.
Compound `COc1ccc(C(N)=O)cc1N` has a melting point of 158 °C.
Work on `CCCCCCCCCCCO` yielded a melting point of 19 °C.
Work on `CCCCCCCCCCCCC#CC#CCCCCCCCCC(=O)O` yielded a melting point of 64 °C.
With `NC(=O)CC(N)=O` the melting point was 169 °C.
`CCC1(C)CC(=O)NC1=O` (stereo unspecified) showed a melting point of 65 °C.
In the case of `Cc1nc(-c2cccc(-n3cccc3)c2)sc1C(=O)NN`, the melting point is reported as 185 to 186 °C.
For `CNc1ncc(C(F)(F)F)cc1[N+](=O)[O-]`, the melting point was 98 to 100 °C.
With `O=[N+]([O-])c1cccc(OCCCCBr)c1` the melting point was 62 to 63 °C.
`CC(=O)Nc1ccc(S)cc1` showed a melting point of 149 to 154 °C.
Compound `C#CC1(O)C=CC(O)(C#C)C=C1` (stereo unspecified) has a melting point of 125 °C.
Work on `CSc1nc(N=Cc2ccc(Cl)cc2)nn1C` yielded a melting point of 136 to 138 °C.
Work on `COC(=O)c1sc(N2CCCCC2)c(C#N)c1N` yielded a melting point of 184 to 185 °C.
Work on `CC1(C)CCC(C)(C)c2cc(S(=O)(=O)Cl)ccc21` yielded a melting point of 78 to 80 °C.
`CC(=O)c1cc(C#N)c(=O)[nH]c1C` showed a melting point of 230 to 232 °C.
For `Oc1ccc2c(c1)C13CCCCC1C(C2)NCC3` (stereo unspecified), the melting point was 271 °C.
In the case of `O=S(=O)(Cl)c1cc(F)c(Br)cc1F`, the melting point is reported as 35 °C.
With `COc1cc2c(cc1OC)C(c1ccccc1Cl)N(C(C)=O)CC2` (stereo unspecified) the melting point was 186 to 188 °C.
`CC(C)C1CCCCC1` showed a melting point of -89.4 °C.
`Cc1ccc(O)c(CO)n1` gave a melting point of 157 to 159 °C.
For `CCOC(=O)c1[nH]nc(C)c1C(=O)OCC`, the melting point was 98 to 99 °C.
For `O=C(Oc1cccc([N+](=O)[O-])c1)c1ccccc1`, the melting point was 95 °C.
`CC(=O)Nc1c(Br)cc(Br)cc1C(=O)c1ccccc1` showed a melting point of 156 °C.
`C[C@@H]1CNCCN1` gave a melting point of 86 to 91 °C.
Compound `N#Cc1ccc(Oc2ccc(C(F)(F)F)cc2N)cc1` has a melting point of 106 to 108 °C.
In the case of `O=C(O)C(F)(F)C(F)(F)C(F)(F)C(F)(F)C(F)(F)C(F)(F)C(F)(F)C(F)(F)C(F)(F)C(F)(F)C(F)(F)C(F)(F)C(F)(F)C(F)(F)C(F)(F)F`, the melting point is reported as 154 to 155 °C.
In the case of `O=C(NO)c1ccccc1`, the melting point is reported as 128 °C.
`Clc1cncc(Br)c1` showed a melting point of 80 °C.
In the case of `ClCc1ccc(-c2nccs2)cc1`, the melting point is reported as 67 to 69 °C.
For `Clc1cncc(Cl)c1N1CCNCC1`, the melting point was 77 to 80 °C.
With `CC12CCC(/C(=C/Nc3ccccc3)C1=O)C2(C)C` (stereo unspecified) the melting point was 165 to 167 °C.
In the case of `CCOC(=O)NC(=S)Nc1sc2c(c1C(=O)OCC)CCCC2`, the melting point is reported as 187 to 190 °C.
Compound `CC(=O)Nc1cccc2c1ccc1nc(-c3ccccc3)c(-c3ccccc3)nc12` has a melting point of 249 °C.
Work on `C(=C\P(c1ccccc1)c1ccccc1)/P(c1ccccc1)c1ccccc1` yielded a melting point of 123 to 128 °C.
`C=C(C)c1cc(=O)c(O)ccc1CC=C(C)C` gave a melting point of 71.5 °C.
Work on `COc1cccc(O)c1` yielded a melting point of -17 °C.
With `O=C(Oc1c(F)c(F)c(F)c(F)c1F)c1ccccc1N1CCOCC1` the melting point was 87 to 90 °C.
Compound `O=Cc1ccc(Br)c(Br)c1` has a melting point of 71 °C.
With `BrC(Br)c1ccccc1C(Br)Br` the melting point was 116 °C.
With `COc1ccc2ccccc2c1Br` the melting point was 80 °C.
In the case of `N#CC(C#N)=c1c(F)c(F)c(=C(C#N)C#N)c(F)c1F`, the melting point is reported as 291 °C.
With `COP(=S)(OC)Oc1ccc(Sc2ccc(OP(=S)(OC)OC)cc2)cc1` the melting point was 30.3 °C.
Compound `Cc1nn2c(C)nnc2s1` has a melting point of 93 °C.
For `CC1(C)CCC2(C(=O)O)CCC3(C)C(=CCC4C5(C)CCC(O)C(C)(C=O)C5CCC43C)C2C1` (stereo unspecified), the melting point was 275 °C.
Compound `COC(=O)c1ccc([N+](=O)[O-])cc1C(=O)OC` has a melting point of 67 °C.
With `Cc1ccc([N+](=O)[O-])c(Cl)c1` the melting point was 24 °C.
Work on `O=S(=O)(Cl)c1ccc(Br)s1` yielded a melting point of 41 °C.
For `CCCCC(CC)(CO)CO`, the melting point was 43.8 °C.

From a melting point compilation (Tetko et al.)
